“And” between values parts separate entries of the source, which are not always exact repeats. Identical values can stand only once.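 Interpolation was linear, between the two tested concentrations surrounding the appropriate level; five concentrations were tested over 48 hours in 96-well plates. Abbreviation: GI50, concentration required for 50% inhibition of growth. TGI: concentration producing complete growth inhibition.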 Some results are limits rather than exact numbers.

Among the test systems are MDA-MB-231 breast; A549 NSCLC; U251 CNS; OVCAR-8 ovarian; HL-60(TB) leukemia; UACC-62 melanoma; DU-145 prostate; NCI-H23 lung; A498 renal; EKVX NSCLC.
Assay in all cases: growth of human tumour cells (NCI), 48 h

For `Cc1ccc(CNc2c3ccccc3nc3ccccc23)cc1`, the GI50 is 1.8 µM with MDA-MB-231 breast; 1.94 µM with A549 NSCLC; 2.65 µM in the experiment with U251 CNS; 2.52 µM with OVCAR-8 ovarian; 2.2 µM with HL-60(TB) leukemia; 1.75 µM with UACC-62 melanoma. In addition, the GI50 with DU-145 prostate is 3.02 µM; in the experiment with NCI-H23 lung it was 1.59 µM; in the experiment on A498 renal it was 1.21 µM; in the experiment on EKVX NSCLC, 2.06 µM. Also, the TGI with MDA-MB-231 breast is 4.52 µM; in the experiment on A549 NSCLC, 5.05 µM; in the experiment on U251 CNS, 10.4 µM; in the experiment with OVCAR-8 ovarian, 10.5 µM; in the experiment with HL-60(TB) leukemia it was 5.07 µM; in the experiment on UACC-62 melanoma, 4.1 µM. The TGI turned out to be 11.4 µM in the experiment with DU-145 prostate, 4.04 µM in the experiment with NCI-H23 lung, 2.92 µM in the experiment on A498 renal and 8.04 µM in the experiment with EKVX NSCLC.
In the case of `COc1cc(-c2nn(-c3ccc(NC(=O)c4ccc(Cl)c(Cl)c4)cc3)cc2-c2ccncc2)ccc1Cl`, the GI50 in the experiment with MDA-MB-231 breast is 3.66 µM; in the experiment with A549 NSCLC, over 100 µM; in the experiment on U251 CNS, 5.7 µM; in the experiment on OVCAR-8 ovarian, 5.28 µM; in the experiment on HL-60(TB) leukemia it was 8.03 µM; in the experiment with UACC-62 melanoma it was 6.34 µM. Also, the GI50 in the experiment on DU-145 prostate is over 100 µM; in the experiment on NCI-H23 lung, 38.4 µM; in the experiment with A498 renal, 5.25 µM; in the experiment on EKVX NSCLC it was 6.82 µM. Also, the TGI in the experiment with MDA-MB-231 breast, in the experiment with A549 NSCLC, with U251 CNS, in the experiment with OVCAR-8 ovarian, in the experiment with HL-60(TB) leukemia and in the experiment with UACC-62 melanoma was over 100 µM throughout. The TGI in the experiment with DU-145 prostate, in the experiment with NCI-H23 lung, in the experiment with A498 renal and in the experiment with EKVX NSCLC was over 100 µM throughout.
Turning to `COc1cc2c(cc1OC)C(=O)/C(=C/c1cccc(OCC(=O)c3ccccc3)c1)C2`, the GI50 with MDA-MB-231 breast was 23.8 µM; with A549 NSCLC, 26.6 µM; with U251 CNS, 8.17 µM; in the experiment on OVCAR-8 ovarian, 5.04 µM; in the experiment with HL-60(TB) leukemia it was 6.44 µM; in the experiment on UACC-62 melanoma it was 8.07 µM. For the same molecule, the GI50 in the experiment with DU-145 prostate is 11.3 µM; in the experiment on NCI-H23 lung, 22.3 µM; in the experiment with A498 renal, 21.7 µM; in the experiment with EKVX NSCLC it was 33.5 µM. For the same molecule, the TGI was over 100 µM with MDA-MB-231 breast; over 100 µM with A549 NSCLC; over 100 µM in the experiment on U251 CNS; over 100 µM in the experiment on OVCAR-8 ovarian; 61.8 µM in the experiment on HL-60(TB) leukemia; 90.8 µM in the experiment on UACC-62 melanoma. Further, the TGI in the experiment with DU-145 prostate, with NCI-H23 lung, in the experiment with A498 renal and in the experiment on EKVX NSCLC was over 100 µM throughout.
Regarding `C=CCn1c2c(c3ccccc3c1=O)C(=O)c1ccccc1-2`, the TGI in the experiment on MDA-MB-231 breast, in the experiment on A549 NSCLC, in the experiment with U251 CNS, with OVCAR-8 ovarian, in the experiment on HL-60(TB) leukemia and in the experiment with UACC-62 melanoma was over 100 µM each time. Further, the TGI in the experiment with DU-145 prostate, in the experiment with NCI-H23 lung, with A498 renal and in the experiment on EKVX NSCLC was over 100 µM in each case.
As for `O=C1NCc2ccc3c(-c4cccc(Cl)c4)c[nH]c3c21`, the GI50 in the experiment with MDA-MB-231 breast was 0.838 µM; in the experiment with A549 NSCLC, 0.438 µM; with U251 CNS, 0.247 µM; in the experiment on OVCAR-8 ovarian, 0.503 µM; in the experiment with HL-60(TB) leukemia, 0.146 µM; in the experiment on UACC-62 melanoma, 0.278 µM. Moreover, the GI50 in the experiment with DU-145 prostate was 0.279 µM; in the experiment with NCI-H23 lung, 0.484 µM; in the experiment on A498 renal, 0.058 µM; with EKVX NSCLC, 0.381 µM. Moreover, the TGI was over 25.7 µM in the experiment with MDA-MB-231 breast; over 50 µM in the experiment on A549 NSCLC; over 50 µM in the experiment on U251 CNS; over 50 µM in the experiment with OVCAR-8 ovarian; over 50 µM in the experiment on UACC-62 melanoma; over 50 µM in the experiment with DU-145 prostate. Moreover, the TGI was over 50 µM in the experiment on NCI-H23 lung, 0.671 µM with A498 renal and over 50 µM with EKVX NSCLC.
`CNc1ccc2nc3ccc(=[N+](C)C)cc-3sc2c1`: the GI50 was 0.426 µM and 0.345 µM with MDA-MB-231 breast; 0.417 µM and 0.338 µM in the experiment with A549 NSCLC; 0.412 µM and 0.267 µM with U251 CNS; 0.298 µM and 0.278 µM in the experiment with OVCAR-8 ovarian; 0.236 µM and 0.343 µM with HL-60(TB) leukemia; 0.799 µM and 1.1 µM in the experiment on UACC-62 melanoma. Besides, the GI50 in the experiment on DU-145 prostate was 3.6 µM and 2.76 µM; with NCI-H23 lung it was 0.817 µM and 0.323 µM; with A498 renal it was 2.98 µM and 6.49 µM; in the experiment on EKVX NSCLC, 4.63 µM and 0.518 µM. Further, the TGI with MDA-MB-231 breast is 5.59 µM and 3.63 µM; in the experiment with A549 NSCLC it was 12.1 µM and 5.21 µM; in the experiment on U251 CNS, 5.6 µM and 1.68 µM; in the experiment with OVCAR-8 ovarian, 1.79 µM and 1.55 µM; in the experiment with HL-60(TB) leukemia it was 1.41 µM and 3.39 µM; in the experiment on UACC-62 melanoma, 2.86 µM and 3.6 µM. The TGI in the experiment with DU-145 prostate is 16.1 µM and 11.9 µM; with NCI-H23 lung it was 7.91 µM and 2.75 µM; in the experiment with A498 renal, 25.4 µM and 28.2 µM; with EKVX NSCLC, 23.4 µM and 14.5 µM.
For the molecule `COc1cc(O)c([C@@H]2C[C@H](CCc3ccc(O)cc3)O[C@H](c3ccc(O)cc3)C2)c(O)c1C(=O)/C=C/c1ccc(O)cc1`, the GI50 with MDA-MB-231 breast is 2.5 µM; in the experiment on A549 NSCLC it was 3.33 µM; in the experiment with U251 CNS, 2.81 µM; in the experiment with OVCAR-8 ovarian, 3.17 µM; in the experiment with HL-60(TB) leukemia it was 2.13 µM; in the experiment with UACC-62 melanoma, 2.38 µM. For the same molecule, the GI50 in the experiment on DU-145 prostate is 3.15 µM; in the experiment with NCI-H23 lung, 2.57 µM; with A498 renal it was 4.24 µM; with EKVX NSCLC, 4.1 µM. The TGI was found to be 6.23 µM in the experiment with MDA-MB-231 breast; 25.1 µM in the experiment with A549 NSCLC; 9.22 µM in the experiment with U251 CNS; 10.5 µM in the experiment on OVCAR-8 ovarian; 5.2 µM in the experiment on HL-60(TB) leukemia; 5.92 µM with UACC-62 melanoma. For the same molecule, the TGI in the experiment on DU-145 prostate was found to be 10.1 µM; in the experiment with NCI-H23 lung it was 5.71 µM; in the experiment on A498 renal, 11.3 µM; with EKVX NSCLC, 16.7 µM.

(Values after PubChem BioAssay (NCI).)
